Data taken from ChEMBL document CHEMBL1909046, “DrugMatrix in vitro pharmacology data”.

tested on: not listed separately; experiment: DRUGMATRIX: Sodium/nucleoside co-transporter radioligand binding (ligand: nitrobenzylthioinosine); assay type: cell membranes, Cavia porcellus, Dunkin-Hartley, Cerebral cortex, Membrane; conditions: Not Active = under 50% inhibition at 10 µM

SMILES	IC50	Ki
Oc1ccc(OCc2ccccc2)cc1 [MONOBENZONE]	Not Active	Not Active
CC(C)(Oc1ccc(C2CCCc3ccccc32)cc1)C(=O)O (stereo unspecified) [NAFENOPIN]	Not Active	Not Active
COc1ccc2cc([C@H](C)C(=O)O)ccc2c1 [NAPROXEN]	Not Active	Not Active
CC(C)[C@H]1CC[C@H](C(=O)N[C@H](Cc2ccccc2)C(=O)O)CC1 [NATEGLINIDE]	Not Active	Not Active
CCN[C@@H]1C[C@H](N)[C@@H](O[C@H]2OC(CN)=CC[C@H]2N)[C@H](O)[C@H]1O[C@H]1OC[C@](C)(O)[C@H](NC)[C@H]1O [NETILMICIN]	Not Active	Not Active
COC(=O)C1=C(C)NC(C)=C(C(=O)OCC(C)C)C1c1ccccc1[N+](=O)[O-] (stereo unspecified) [NISOLDIPINE]	Not Active	Not Active

molecular target: Aldo-keto reductase family 1 member B1 (Rattus norvegicus, UniProt P07943); experiment: biochemical; assay type: tissue-based, Lens of camera-type eye; conditions: not given;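 also: inhibition of aldose reductase enzyme activity, measured with DL-glyceraldehyde as the substrate; in other assays of this panel Not Active means under 50% inhibition at 10 µM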

SMILES	IC50
Oc1ccc(OCc2ccccc2)cc1 [MONOBENZONE]	Not Active
CC(C)(Oc1ccc(C2CCCc3ccccc32)cc1)C(=O)O (stereo unspecified) [NAFENOPIN]	Not Active
COc1ccc2cc([C@H](C)C(=O)O)ccc2c1 [NAPROXEN]	Not Active
CC(C)[C@H]1CC[C@H](C(=O)N[C@H](Cc2ccccc2)C(=O)O)CC1 [NATEGLINIDE]	Not Active
CCN[C@@H]1C[C@H](N)[C@@H](O[C@H]2OC(CN)=CC[C@H]2N)[C@H](O)[C@H]1O[C@H]1OC[C@](C)(O)[C@H](NC)[C@H]1O [NETILMICIN]	Not Active
COC(=O)C1=C(C)NC(C)=C(C(=O)OCC(C)C)C1c1ccccc1[N+](=O)[O-] (stereo unspecified) [NISOLDIPINE]	Not Active

molecular target: T1, Type-2 angiotensin II receptor (Homo sapiens, UniProt P50052); experiment: not given; assay type: cell-based; conditions: cho-k1; also: in other assays of this panel Not Active means under 50% inhibition at 10 µM
T1 sequence (P50052 whole entry): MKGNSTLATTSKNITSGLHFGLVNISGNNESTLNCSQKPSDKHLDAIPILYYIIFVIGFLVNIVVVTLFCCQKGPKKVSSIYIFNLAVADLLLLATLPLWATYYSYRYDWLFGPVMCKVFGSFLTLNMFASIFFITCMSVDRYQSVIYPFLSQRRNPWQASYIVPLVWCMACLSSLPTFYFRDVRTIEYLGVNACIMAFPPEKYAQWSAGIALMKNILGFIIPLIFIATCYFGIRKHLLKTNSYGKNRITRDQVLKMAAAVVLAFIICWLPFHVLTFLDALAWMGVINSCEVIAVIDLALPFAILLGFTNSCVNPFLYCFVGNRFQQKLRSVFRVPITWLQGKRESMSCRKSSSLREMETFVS

SMILES	IC50
Oc1ccc(OCc2ccccc2)cc1 [MONOBENZONE]	Not Active
CC(C)(Oc1ccc(C2CCCc3ccccc32)cc1)C(=O)O (stereo unspecified) [NAFENOPIN]	Not Active
COc1ccc2cc([C@H](C)C(=O)O)ccc2c1 [NAPROXEN]	Not Active
CC(C)[C@H]1CC[C@H](C(=O)N[C@H](Cc2ccccc2)C(=O)O)CC1 [NATEGLINIDE]	Not Active
CCN[C@@H]1C[C@H](N)[C@@H](O[C@H]2OC(CN)=CC[C@H]2N)[C@H](O)[C@H]1O[C@H]1OC[C@](C)(O)[C@H](NC)[C@H]1O [NETILMICIN]	Not Active
COC(=O)C1=C(C)NC(C)=C(C(=O)OCC(C)C)C1c1ccccc1[N+](=O)[O-] (stereo unspecified) [NISOLDIPINE]	Not Active

molecular target: T2, B2 bradykinin receptor (Homo sapiens, UniProt P30411); experiment: not given; assay type: cell membranes, Membrane; conditions: chem-1; also: in other assays of this panel Not Active means under 50% inhibition at 10 µM
T2 sequence (P30411 whole entry): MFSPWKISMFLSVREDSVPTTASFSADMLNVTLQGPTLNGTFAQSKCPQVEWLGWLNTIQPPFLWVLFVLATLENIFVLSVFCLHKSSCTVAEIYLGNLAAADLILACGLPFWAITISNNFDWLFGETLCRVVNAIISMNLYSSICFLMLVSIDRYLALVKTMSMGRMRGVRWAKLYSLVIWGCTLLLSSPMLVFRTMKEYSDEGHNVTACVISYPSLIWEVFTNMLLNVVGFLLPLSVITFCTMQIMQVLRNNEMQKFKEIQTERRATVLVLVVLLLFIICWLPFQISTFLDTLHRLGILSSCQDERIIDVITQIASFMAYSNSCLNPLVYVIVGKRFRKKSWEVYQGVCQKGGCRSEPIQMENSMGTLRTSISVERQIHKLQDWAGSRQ

SMILES	IC50
Oc1ccc(OCc2ccccc2)cc1 [MONOBENZONE]	Not Active
CC(C)(Oc1ccc(C2CCCc3ccccc32)cc1)C(=O)O (stereo unspecified) [NAFENOPIN]	Not Active
COc1ccc2cc([C@H](C)C(=O)O)ccc2c1 [NAPROXEN]	Not Active
CC(C)[C@H]1CC[C@H](C(=O)N[C@H](Cc2ccccc2)C(=O)O)CC1 [NATEGLINIDE]	Not Active
CCN[C@@H]1C[C@H](N)[C@@H](O[C@H]2OC(CN)=CC[C@H]2N)[C@H](O)[C@H]1O[C@H]1OC[C@](C)(O)[C@H](NC)[C@H]1O [NETILMICIN]	Not Active
COC(=O)C1=C(C)NC(C)=C(C(=O)OCC(C)C)C1c1ccccc1[N+](=O)[O-] (stereo unspecified) [NISOLDIPINE]	Not Active

molecular target: T3, C-C chemokine receptor type 4 (Homo sapiens, UniProt P51679); experiment: not given; assay type: cell membranes, Membrane; conditions: chem-1; also: in other assays of this panel Not Active means under 50% inhibition at 10 µM
T3 sequence (P51679 whole entry): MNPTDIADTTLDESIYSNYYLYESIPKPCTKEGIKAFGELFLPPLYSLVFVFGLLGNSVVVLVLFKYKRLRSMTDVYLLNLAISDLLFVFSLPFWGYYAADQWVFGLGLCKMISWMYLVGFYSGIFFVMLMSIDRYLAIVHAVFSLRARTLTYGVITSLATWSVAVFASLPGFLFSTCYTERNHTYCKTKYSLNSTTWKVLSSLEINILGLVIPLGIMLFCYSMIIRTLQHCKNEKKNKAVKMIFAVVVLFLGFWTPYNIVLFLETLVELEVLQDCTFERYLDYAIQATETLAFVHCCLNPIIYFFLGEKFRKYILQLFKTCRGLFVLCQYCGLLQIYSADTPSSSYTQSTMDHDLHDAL

SMILES	IC50
Oc1ccc(OCc2ccccc2)cc1 [MONOBENZONE]	Not Active
CC(C)(Oc1ccc(C2CCCc3ccccc32)cc1)C(=O)O (stereo unspecified) [NAFENOPIN]	Not Active
COc1ccc2cc([C@H](C)C(=O)O)ccc2c1 [NAPROXEN]	Not Active
CC(C)[C@H]1CC[C@H](C(=O)N[C@H](Cc2ccccc2)C(=O)O)CC1 [NATEGLINIDE]	Not Active
CCN[C@@H]1C[C@H](N)[C@@H](O[C@H]2OC(CN)=CC[C@H]2N)[C@H](O)[C@H]1O[C@H]1OC[C@](C)(O)[C@H](NC)[C@H]1O [NETILMICIN]	Not Active
COC(=O)C1=C(C)NC(C)=C(C(=O)OCC(C)C)C1c1ccccc1[N+](=O)[O-] (stereo unspecified) [NISOLDIPINE]	Not Active

tested on: not listed separately; experiment: DRUGMATRIX: Leukotriene, BLT (LTB4) radioligand binding (ligand: [3H]LTB4); assay type: cell membranes, Membrane; conditions: u-937; Not Active = under 50% inhibition at 10 µM

SMILES	IC50	Ki
Oc1ccc(OCc2ccccc2)cc1 [MONOBENZONE]	Not Active	Not Active
CC(C)(Oc1ccc(C2CCCc3ccccc32)cc1)C(=O)O (stereo unspecified) [NAFENOPIN]	Not Active	Not Active
COc1ccc2cc([C@H](C)C(=O)O)ccc2c1 [NAPROXEN]	Not Active	Not Active
CC(C)[C@H]1CC[C@H](C(=O)N[C@H](Cc2ccccc2)C(=O)O)CC1 [NATEGLINIDE]	Not Active	Not Active
CCN[C@@H]1C[C@H](N)[C@@H](O[C@H]2OC(CN)=CC[C@H]2N)[C@H](O)[C@H]1O[C@H]1OC[C@](C)(O)[C@H](NC)[C@H]1O [NETILMICIN]	Not Active	Not Active
COC(=O)C1=C(C)NC(C)=C(C(=O)OCC(C)C)C1c1ccccc1[N+](=O)[O-] (stereo unspecified) [NISOLDIPINE]	Not Active	Not Active

molecular target: Platelet-activating factor receptor (Homo sapiens, UniProt P25105); experiment: not given; assay type: tissue-based; conditions: not given; also: in other assays of this panel Not Active means under 50% inhibition at 10 µM
Sequence (P25105 whole entry): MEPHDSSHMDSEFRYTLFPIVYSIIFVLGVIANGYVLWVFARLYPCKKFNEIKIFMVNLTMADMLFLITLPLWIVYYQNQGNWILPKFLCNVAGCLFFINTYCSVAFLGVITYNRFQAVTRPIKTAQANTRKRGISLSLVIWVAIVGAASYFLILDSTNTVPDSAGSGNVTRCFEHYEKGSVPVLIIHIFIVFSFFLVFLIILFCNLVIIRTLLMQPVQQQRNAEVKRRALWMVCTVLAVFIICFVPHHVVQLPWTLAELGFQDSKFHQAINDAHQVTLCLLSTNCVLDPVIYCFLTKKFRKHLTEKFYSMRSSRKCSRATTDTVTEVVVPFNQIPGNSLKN

SMILES	IC50
Oc1ccc(OCc2ccccc2)cc1 [MONOBENZONE]	Not Active
CC(C)(Oc1ccc(C2CCCc3ccccc32)cc1)C(=O)O (stereo unspecified) [NAFENOPIN]	Not Active
COc1ccc2cc([C@H](C)C(=O)O)ccc2c1 [NAPROXEN]	Not Active
CC(C)[C@H]1CC[C@H](C(=O)N[C@H](Cc2ccccc2)C(=O)O)CC1 [NATEGLINIDE]	Not Active
CCN[C@@H]1C[C@H](N)[C@@H](O[C@H]2OC(CN)=CC[C@H]2N)[C@H](O)[C@H]1O[C@H]1OC[C@](C)(O)[C@H](NC)[C@H]1O [NETILMICIN]	Not Active
COC(=O)C1=C(C)NC(C)=C(C(=O)OCC(C)C)C1c1ccccc1[N+](=O)[O-] (stereo unspecified) [NISOLDIPINE]	Not Active

molecular target: T4, Angiotensin-converting enzyme (Oryctolagus cuniculus, UniProt P12822); experiment: not given; assay type: tissue-based, Lung; conditions: not given
T4 sequence (P12822 whole entry): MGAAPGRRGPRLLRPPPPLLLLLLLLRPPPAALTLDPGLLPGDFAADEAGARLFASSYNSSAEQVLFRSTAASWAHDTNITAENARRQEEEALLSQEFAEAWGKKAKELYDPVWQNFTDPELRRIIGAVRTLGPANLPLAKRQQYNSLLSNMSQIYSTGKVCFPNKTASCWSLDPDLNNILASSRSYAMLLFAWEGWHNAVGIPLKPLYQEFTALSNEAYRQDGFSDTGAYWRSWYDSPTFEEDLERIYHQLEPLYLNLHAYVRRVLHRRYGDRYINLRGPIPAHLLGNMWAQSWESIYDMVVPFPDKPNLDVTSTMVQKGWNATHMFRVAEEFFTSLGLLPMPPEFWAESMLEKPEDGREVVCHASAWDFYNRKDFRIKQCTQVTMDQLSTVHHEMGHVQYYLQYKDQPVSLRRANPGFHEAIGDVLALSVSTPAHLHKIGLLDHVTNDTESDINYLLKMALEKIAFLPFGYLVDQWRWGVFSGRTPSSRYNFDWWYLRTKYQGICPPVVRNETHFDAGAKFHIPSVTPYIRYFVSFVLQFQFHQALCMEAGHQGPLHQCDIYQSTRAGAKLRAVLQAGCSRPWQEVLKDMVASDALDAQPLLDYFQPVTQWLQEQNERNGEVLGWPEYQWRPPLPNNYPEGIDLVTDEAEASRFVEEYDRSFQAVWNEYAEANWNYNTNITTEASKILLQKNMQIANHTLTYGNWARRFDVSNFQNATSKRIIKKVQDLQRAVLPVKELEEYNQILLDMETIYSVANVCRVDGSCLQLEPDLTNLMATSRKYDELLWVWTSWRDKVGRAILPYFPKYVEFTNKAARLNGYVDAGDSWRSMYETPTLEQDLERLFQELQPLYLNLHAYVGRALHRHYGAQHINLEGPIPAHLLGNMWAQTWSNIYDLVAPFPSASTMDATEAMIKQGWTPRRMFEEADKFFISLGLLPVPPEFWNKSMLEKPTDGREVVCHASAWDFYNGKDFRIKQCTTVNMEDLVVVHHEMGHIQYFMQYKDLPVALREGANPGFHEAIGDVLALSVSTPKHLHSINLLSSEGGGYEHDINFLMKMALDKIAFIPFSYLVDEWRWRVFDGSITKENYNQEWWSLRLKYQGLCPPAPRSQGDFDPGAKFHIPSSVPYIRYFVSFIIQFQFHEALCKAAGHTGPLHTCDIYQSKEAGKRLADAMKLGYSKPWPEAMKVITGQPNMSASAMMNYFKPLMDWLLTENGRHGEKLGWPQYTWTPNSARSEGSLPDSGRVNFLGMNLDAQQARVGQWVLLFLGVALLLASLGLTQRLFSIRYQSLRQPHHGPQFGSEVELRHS

SMILES	IC50
Oc1ccc(OCc2ccccc2)cc1 [MONOBENZONE]	Not Active
CC(C)(Oc1ccc(C2CCCc3ccccc32)cc1)C(=O)O (stereo unspecified) [NAFENOPIN]	Not Active
COc1ccc2cc([C@H](C)C(=O)O)ccc2c1 [NAPROXEN]	Not Active
CC(C)[C@H]1CC[C@H](C(=O)N[C@H](Cc2ccccc2)C(=O)O)CC1 [NATEGLINIDE]	Not Active
CCN[C@@H]1C[C@H](N)[C@@H](O[C@H]2OC(CN)=CC[C@H]2N)[C@H](O)[C@H]1O[C@H]1OC[C@](C)(O)[C@H](NC)[C@H]1O [NETILMICIN]	Not Active
COC(=O)C1=C(C)NC(C)=C(C(=O)OCC(C)C)C1c1ccccc1[N+](=O)[O-] (stereo unspecified) [NISOLDIPINE]	Not Active

molecular target: Mitogen-activated protein kinase 3 (Homo sapiens, UniProt P27361); experiment: DRUGMATRIX: Protein Serine/Threonine Kinase, ERK1 enzyme inhibition (substrate: Myelin Basic Protein); design: species or system Escherichia coli; conditions: Not Active = under 50% inhibition at 10 µM
Sequence (P27361 whole entry): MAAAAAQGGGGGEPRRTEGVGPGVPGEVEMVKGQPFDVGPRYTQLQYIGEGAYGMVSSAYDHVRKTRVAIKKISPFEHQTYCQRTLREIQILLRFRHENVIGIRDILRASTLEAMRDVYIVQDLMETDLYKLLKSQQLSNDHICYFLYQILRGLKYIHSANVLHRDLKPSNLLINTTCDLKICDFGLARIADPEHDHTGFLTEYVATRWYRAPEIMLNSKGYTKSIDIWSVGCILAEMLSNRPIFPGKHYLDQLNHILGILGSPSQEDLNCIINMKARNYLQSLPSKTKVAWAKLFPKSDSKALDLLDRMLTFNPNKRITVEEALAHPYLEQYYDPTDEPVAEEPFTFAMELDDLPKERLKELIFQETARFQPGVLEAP

SMILES	IC50
Oc1ccc(OCc2ccccc2)cc1 [MONOBENZONE]	Not Active
CC(C)(Oc1ccc(C2CCCc3ccccc32)cc1)C(=O)O (stereo unspecified) [NAFENOPIN]	Not Active
COc1ccc2cc([C@H](C)C(=O)O)ccc2c1 [NAPROXEN]	Not Active
CC(C)[C@H]1CC[C@H](C(=O)N[C@H](Cc2ccccc2)C(=O)O)CC1 [NATEGLINIDE]	Not Active
CCN[C@@H]1C[C@H](N)[C@@H](O[C@H]2OC(CN)=CC[C@H]2N)[C@H](O)[C@H]1O[C@H]1OC[C@](C)(O)[C@H](NC)[C@H]1O [NETILMICIN]	Not Active
COC(=O)C1=C(C)NC(C)=C(C(=O)OCC(C)C)C1c1ccccc1[N+](=O)[O-] (stereo unspecified) [NISOLDIPINE]	Not Active
